Results taken from PMC12673918, “Design, Synthesis, and Selective Antiproliferative Activity of Indolizine Derivatives as Microtubule Destabilizers” (Archiv Der Pharmazie, 2025).

Key:
[1] = system: BT‐20 breast cancer cells; assay: Western blot of cell‐cycle, apoptosis and signaling proteins; format: cell-based; conditions: 2.5 µM for 24 h
Protocol: Cells were seeded in 10 cm plates (1.5 × 10⁶ cells/plate) and incubated for 24 h. Subsequently, the cells were treated with the compounds at a concentration of 2.5 µM for 24 h. After treatment, the cells were collected, and the proteins were isolated. A total of 30 µg of proteins were separated electrophoretically on a sodium dodecyl sulfate‐polyacrylamide gel (SDS‐PAGE) and transferred onto a polyvinylidene fluoride (PVDF) membrane (GE Healthcare) using the PowerBlotter Station (Invitrogen) according to the manufacturer's recommendations. After transfer, the membrane was blocked with a 5% (w/v) nonfat milk solution in TBS‐T (0.1 M Tris (pH 7.5), 0.9% NaCl, 0.1% Tween‐20) at room temperature for 1 h under gentle agitation. The membrane was then washed with TBS‐T and incubated with primary antibodies under agitation for approximately 16 h at 4°C. The primary antibodies used were: c‐Myc (#5605), ß‐tubulin (#2128), p21 (#2947), Cyclin D1 (#2978), Bcl‐2 (#15071), p‐AKT ser473 (#4058), and GAPDH (#2118) (Cell Signaling Technology). After primary antibody incubation, the membranes were washed with TBS‐T and incubated at room temperature for 1 h in a TBS‐T solution containing 5% nonfat milk and the HRP‐conjugated secondary antibody. Following the washes with TBS‐T, the membranes were incubated with the SuperSignal West Dura substrate (Thermo Scientific). Immunodetection was analyzed using the ChemiDoc imaging system (Bio‐Rad).

[2] = system: BT‐20 breast cancer cells; assay: Cell‐cycle assay by flow cytometry; format: cell-based; conditions: 2.5 µM, 24 h
Protocol: BT‐20 cells were seeded in 10 cm plates (1.5 × 10⁶ cells/plate) and incubated at 37°C with 5% CO₂ for 24 h. Subsequently, the cells were treated with different compounds at a concentration of 2.5 µM for 24 h. After treatment, the cells were collected by centrifugation and fixed in cold 70% ethanol for 1 h at 4°C. The cells were then washed, collected by centrifugation, and treated with RNase A (100 μg/mL, Sigma‐Aldrich) for 30 min at 37°C, followed by staining with propidium iodide (50 μg/mL) for 15 min at 37°C. Finally, the percentages of cells in each phase of the cell cycle were determined using FACSCalibur flow cytometry (BD Biosciences—San Jose, CA, USA). Cell‐cycle distribution was analyzed using ModFit LT V3.3 software.

tubulin = assay: Tubulin polymerization (inhibition) assay kit; format: biochemical; conditions: for effect on tubulin polymerization curves (RFU): compounds 5 µM, vs control and paclitaxel; for IC50: n = 2
Protocol: To evaluate the effect of the compounds on tubulin polymerization, the Tubulin Polymerization Assay Kit (Cytoskeleton Inc.) was used according to the manufacturer's instructions. Briefly, 5 µL of the compounds (final concentration ranging from 0.1 to 100 µM) were pipetted per well into a pre‐warmed 96‐well black‐bottom plate at 37°C. After 1 min, 55 µL of the tubulin reaction mix (1X Buffer 1, 0.7X Tubulin Glycerol Buffer, 1 mM GTP, and 2 mg/mL tubulin) was added to each well. Next, after 5 s of shaking, fluorescence detection (excitation: 340–360 nm, emission: 410–460 nm) was performed using a microplate fluorimeter. […] Data were plotted, and IC₅₀ values were determined by nonlinear regression using GraphPad Prism software 9.0.
^c Tubulin polymerization was evaluated using a commercial assay kit, following standard procedures. Compounds were incubated with tubulin, and fluorescence was measured over time to generate kinetic curves and determine the maximum polymerization rate (Vmax). These experiments were carried out in duplicate.

SMILES | Bcl‐2 levels [1] | cyclin D1 levels [1] | p21 expression [1] | cell‐cycle distribution [2] | effect on tubulin polymerization curves (RFU) (tubulin) | IC50 (tubulin) [µM]
COc1ccc2c(C(=O)c3cc(OC)c(OC)c(OC)c3)c(C(F)(F)F)cn2c1 [Compound 8e, [6‐methoxy‐2‐(trifluoromethyl)indolizin‐1‐yl](3,4,5‐trimethoxyphenyl)methanone] | decrease | markedly decreased | upregulated | significant accumulation of cells in the G2/M phase | most potent | 9.3
CCCc1cn2cc(OC)ccc2c1C(=O)c1cc(OC)c(OC)c(OC)c1 [Compound 8h, (6‐methoxy‐2‐propylindolizin‐1‐yl)(3,4,5‐trimethoxyphenyl)methanone] | decrease | markedly decreased | upregulated | significant accumulation of cells in the G2/M phase | most potent | 10.9
